From patent EP0742220A2, “Esters of boric acid and their use as perfume” (HAARMANN & REIMER GMBH, priority 1995, dated 1996)

Legend:
[1] = test system: Pseudomonas aeruginosa; experiment: microtitre plate test on sterile agar, growth inhibition of gram-negative bacteria; type: cell-based; details: gramnegativen Bakterien (z.B. Pseudomonas aeruginosa); Inkubationszeit 3 Tage, Temperatur 37°C
Procedure: (§1) Sowohl gegenüber gramnegativen Bakterien (z.B. Pseudomonas aeruginosa) als auch grampositiven Bakterien (z.B. Staphylococcus aureus) zeigen die beispielhaft genannten Borate eine hervorragende wachstumshemmende Wirkung, was experimentell durch einen sogenannten Mikrotiterplattentest auf sterilem Agar (Inkubationszeit 3 Tage, Temperatur 37°C) dokumentiert werden konnte.

[2] = test system: Staphylococcus aureus; experiment: microtitre plate test on sterile agar, growth inhibition of gram-positive bacteria; type: cell-based; details: grampositiven Bakterien (z.B. Staphylococcus aureus); Inkubationszeit 3 Tage, Temperatur 37°C
Procedure: as §1

Compound: CC/C=C\CCOB(OCC/C=C\CC)OCC/C=C\CC [tris-(cis)-3-Hexenylborat]
- wachstumshemmende Wirkung [1]: antimikrobiellen Eigenschaften
- wachstumshemmende Wirkung [2]: antimikrobiellen Eigenschaften

Compound: CC(C)=CCC/C(C)=C/COB(OC/C=C(\C)CCC=C(C)C)OC/C=C(\C)CCC=C(C)C [tris-Geranylborat]
- wachstumshemmende Wirkung [1]: antimikrobiellen Eigenschaften
- wachstumshemmende Wirkung [2]: antimikrobiellen Eigenschaften

Compound: CC(CC=O)CCCC(C)(C)OB(OC(C)(C)CCCC(C)CC=O)OC(C)(C)CCCC(C)CC=O (centres unmarked) [tris-Hydroxycitronellalborat]
- wachstumshemmende Wirkung [1]: antimikrobiellen Eigenschaften
- wachstumshemmende Wirkung [2]: antimikrobiellen Eigenschaften

Compound: C=CC(C)(CCC=C(C)C)OB(OC(C)(C=C)CCC=C(C)C)OC(C)(C=C)CCC=C(C)C (centres unmarked) [tris-Linalylborat]
- wachstumshemmende Wirkung [1]: antimikrobiellen Eigenschaften
- wachstumshemmende Wirkung [2]: antimikrobiellen Eigenschaften

Compound: CC(C)=CCC/C(C)=C\COB(OC/C=C(/C)CCC=C(C)C)OC/C=C(/C)CCC=C(C)C [tris-Nerylborat]
- wachstumshemmende Wirkung [1]: antimikrobiellen Eigenschaften
- wachstumshemmende Wirkung [2]: antimikrobiellen Eigenschaften

Compound: c1ccc(CCOB(OCCc2ccccc2)OCCc2ccccc2)cc1 [tris-Phenylethylborat]
- wachstumshemmende Wirkung [1]: antimikrobiellen Eigenschaften
- wachstumshemmende Wirkung [2]: antimikrobiellen Eigenschaften

Compound: C=CCCCCCCCCCOB(OCCCCCCCCCC=C)OCCCCCCCCCC=C [tris-Undecenylborat]
- wachstumshemmende Wirkung [1]: antimikrobiellen Eigenschaften
- wachstumshemmende Wirkung [2]: antimikrobiellen Eigenschaften
